From patent US7009052B2, “Sulfonamide derivatives” (Warner Lambert Company LLC, priority 2003, dated 2006)

Biological target: T1, androgen receptor (Homo sapiens, UniProt P10275)
T1 sequence (P10275 1-920 Q868H): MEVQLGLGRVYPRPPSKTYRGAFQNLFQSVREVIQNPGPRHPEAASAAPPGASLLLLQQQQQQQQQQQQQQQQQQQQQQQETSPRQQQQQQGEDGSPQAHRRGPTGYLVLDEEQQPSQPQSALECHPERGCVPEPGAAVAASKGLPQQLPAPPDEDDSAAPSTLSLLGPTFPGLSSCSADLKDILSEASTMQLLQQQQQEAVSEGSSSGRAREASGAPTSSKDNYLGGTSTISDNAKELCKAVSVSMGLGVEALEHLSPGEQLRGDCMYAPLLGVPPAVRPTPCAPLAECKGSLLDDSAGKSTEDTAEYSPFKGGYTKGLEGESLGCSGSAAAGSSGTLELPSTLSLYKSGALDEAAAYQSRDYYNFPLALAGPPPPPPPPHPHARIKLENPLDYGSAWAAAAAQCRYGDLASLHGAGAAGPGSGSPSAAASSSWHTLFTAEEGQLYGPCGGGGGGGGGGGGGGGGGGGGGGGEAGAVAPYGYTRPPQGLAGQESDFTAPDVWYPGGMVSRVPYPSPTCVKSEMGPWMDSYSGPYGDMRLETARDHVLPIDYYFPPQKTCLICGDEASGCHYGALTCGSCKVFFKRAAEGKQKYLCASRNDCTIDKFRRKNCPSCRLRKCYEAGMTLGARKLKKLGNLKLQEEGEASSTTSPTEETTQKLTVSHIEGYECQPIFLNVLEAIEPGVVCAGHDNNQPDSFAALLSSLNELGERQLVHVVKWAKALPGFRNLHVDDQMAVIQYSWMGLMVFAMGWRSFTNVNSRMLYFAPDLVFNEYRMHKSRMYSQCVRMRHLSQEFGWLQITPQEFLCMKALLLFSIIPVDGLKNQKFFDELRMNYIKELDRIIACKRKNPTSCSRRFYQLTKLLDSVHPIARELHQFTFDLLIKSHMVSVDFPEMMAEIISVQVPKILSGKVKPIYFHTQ
Assay: AR Antagonist Cell Assay (MMTV-luciferase reporter, DHT-induced)
Type: cell-based
Details: MDA-MB453-MMTV clone 54-19 cells, 100 pM DHT, 17 hr
Experimental: The compounds ability to antagonize the effects of androgen on the androgen receptor were determined in the protocol described immediately below.
Experimental Procedure for AR Antagonist Cell Assay
Cell line: MDA-MB453-MMTV clone 54-19. This cell line is a stable transfected cell line with MDA-MB453 cell background (human breast tumor cell expressing high level of androgen receptor). A MMTV minimal promoter containing ARE was first cloned in front of a firefly luciferase reporter gene. Then the cascade was cloned into transfection vector pUV120puro. Electroporation method was used for transfecting MDA-MB-453 cell. Puromycin resistant stable cell line was selected.
Cell Culture Media and Reagents:
Culture medium: DMEM (high glucose, Gibco cat #: 11960-044), 10% FBS, and 1% L-glutamine
Plating medium: DMEM (phenol red free), 10% charcoal treated HyClone serum, 1% L-glutamine
Assay medium: DMEM (phenol red free), 1% charcoal treated HyClone serum, 1% L-glutamine, and 1% penicillin/streptomycin
3× luciferase buffer: 2% beta-mercaptoethanol, 0.6% ATP, 0.0135% luciferine in cell lysis buffer
• 1. Cells are maintained in culture medium, splitting cells when they reach 80–90% confluence • 2. To test compounds, 10,000 cells/well are plated to opaque 96 cell culture plate in 100 ul/well plating medium, culture for overnight at 37° C. in cell culture incubator • 3. Carefully remove plating medium, then add 80 ul/well of pre-warmed assay medium, add 10 ul/well testing compound (final concentration at 10 uM or 1 uM), incubate at 37° C. for 30 minutes • 4. Add 10 ul/well freshly prepared DHT (final concentration at 100 pM) to each well, incubate at 37° C. for 17 hr (overnight) • 5. Add 50 ul/well 3× luciferase buffer, incubate at room temperature for 5 minutes, then count on Luminometer The fold induction over background by 100 pM DHT in the absence of testing compounds is standardized as 100% and experimental result is expressed as percentage of inhibition by testing compounds. TABLE3

Compared with `Cn1c(=O)cc(C(F)(F)F)c2cc(S(=O)(=O)NCCc3c[nH]c4ccccc34)ccc21` [Example 60, 1-Methyl-2-oxo-4-trifluoromethyl-1,2-dihydroquinoline-6-sulfonicacid [2-(1H-indol-3-yl)ethyl]amide], `O=c1cc(C(F)(F)F)c2cc(S(=O)(=O)NCCc3c[nH]c4ccccc34)ccc2o1` [Example 67, 2-Oxo-4-trifluoromethyl-2H-chromene-6-sulfonic acid [2-(1H-indol-3-yl)ethyl]amide] is higher in IC50: 6.33 µM for the first, over 10 µM for the second.

Going from `Cn1c(=O)cc(C(F)(F)F)c2cc(S(=O)(=O)NCCSC(C)(C)C)ccc21` [Example 61, 1-Methyl-2-oxo-4-trifluoromethyl-1,2-dihydroquinoline-6-sulfonicacid (2-tert-butylsulfanylethyl)amide] to `Cn1c(=O)cc(C(F)(F)F)c2cc(S(=O)(=O)NCCSCc3c(F)cccc3Cl)ccc21` [Example 63, 1-Methyl-2-oxo-4-trifluoromethyl-1,2-dihydroquinoline-6-sulfonicacid [2-(2-chloro-6-fluorobenzylsulfanyl)ethyl]-amide], the IC50 rises from 1.53 µM to over 10 µM.

Going from `Cn1c(=O)cc(C(F)(F)F)c2cc(S(=O)(=O)NCc3ccccc3C(F)(F)F)ccc21` [Example 62, 1-Methyl-2-oxo-4-trifluoromethyl-1,2-dihydroquinoline-6-sulfonicacid 2-trifluoromethyl-benzylamide] to `CSc1ccccc1CNS(=O)(=O)c1ccc2oc(=O)cc(C(F)(F)F)c2c1` [Example 66, 2-Oxo-4-trifluoromethyl-2H-chromene-6-sulfonic acid 2-methylsulfanylbenzylamide], the IC50 rises from 3.92 µM to over 10 µM. The first is the more potent here.

`O=c1cc(C(F)(F)F)c2cc(S(=O)(=O)NCc3cccnc3)ccc2o1` [Example 64, 2-Oxo-4-trifluoromethyl-2H-chromene-6-sulfonic acid(pyridin-3-ylmethyl)amide] and `CC(C)(NS(=O)(=O)c1ccc2oc(=O)cc(C(F)(F)F)c2c1)c1ccccc1` [Example 65, 2-Oxo-4-trifluoromethyl-2H-chromene-6-sulfonic acid (1-methyl-1-phenylethyl)amide] cannot be ordered by IC50: over 10 µM for the first, over 10 µM for the second.

`CCCCN(CCCC)S(=O)(=O)c1ccc2[nH]c(=O)cc(C(F)(F)F)c2c1` [Example 68, 2-Oxo-4-trifluoromethyl-1,2-dihydroquinoline-6-sulfonic aciddibutylamide] and `CCCCCN(CCO)S(=O)(=O)c1ccc2[nH]c(=O)cc(C(F)(F)F)c2c1` [Example 74, 2-Oxo-4-trifluoromethyl-1,2-dihydroquinoline-6-sulfonic acid(2-hydroxyethyl)-pentylamide] are within 1.5-fold of each other in IC50: 0.41 µM for the first, 0.29 µM for the second.

Compared with `CCCCN(CC)S(=O)(=O)c1ccc2[nH]c(=O)cc(C(F)(F)F)c2c1` [Example 69, 2-Oxo-4-trifluoromethyl-1,2-dihydroquinoline-6-sulfonic acidbutylethylamide], `CCCN(CC1CC1)S(=O)(=O)c1ccc2[nH]c(=O)cc(C(F)(F)F)c2c1` [Example 73, 2-Oxo-4-trifluoromethyl-1,2-dihydroquinoline-6-sulfonic acidcyclopropylmethyl-propylamide] is 2.8-fold higher in IC50: 0.2 µM for the first, 0.55 µM for the second. The first is the more potent here.

Going from `CC(C)N(C)S(=O)(=O)c1ccc2[nH]c(=O)cc(C(F)(F)F)c2c1` [Example 70, 2-Oxo-4-trifluoromethyl-1,2-dihydroquinoline-6-sulfonic acidisopropylmethylamide] to `CN(C)CCN(C)S(=O)(=O)c1ccc2[nH]c(=O)cc(C(F)(F)F)c2c1` [Example 72], the IC50 rises from 0.55 µM to over 10 µM.

First: O=c1cc(C(F)(F)F)c2cc(S(=O)(=O)N(CCO)Cc3ccccc3)ccc2[nH]1 [Example 71, 2-Oxo-4-trifluoromethyl-1,2-dihydroquinoline-6-sulfonic acidbenzyl(2-hydroxyethyl)amide]
Second: CN(C1CCCCC1)S(=O)(=O)c1ccc2[nH]c(=O)cc(C(F)(F)F)c2c1 [Example 75, 2-Oxo-4-trifluoromethyl-1,2-dihydroquinoline-6-sulfonic acidcyclohexylmethylamide]
The IC50 of the first is 4.4-fold lower: 1.31 µM for the first, 5.72 µM for the second. The first is the more potent here.
